Each structure is given as a SMILES string. Where “and” joins values, the source holds several entries; their conditions need not be identical. Identical values can stand only once. Like-named read-outs stand apart in the source and are kept apart here.

19 compounds from EP0495091B1 (Metabasis Therapeutics Inc., priority 1990, dated 1992) can be followed below.

One data set has as its system Isolated rat hearts. The data set is described as follows: Improved functional recovery in isolated hearts (Langendorff, post-ischemic LVDP). Particulars: 30 min ischemia, 30 min reperfusion, number in brackets = hearts. Here is the method:
Isolated rat hearts were cannulated via the ascending aorta and attached to a perfusion apparatus according to the method of Langendorff. The hearts were perfused at a constant pressure of 100 cm of H2O with a modified Krebs-Henseleit buffer (pH 7.4) at 37°C. As a measure of heart function, left ventricular developed pressure (LVDP) was continuously monitored. Following equilibration of the hearts for a period of 30 min., the hearts were subjected to reduced flow i.e. ischemia, by reducing the pressure to 10 cm of H2O for 30 min. Flow was then restored by returning the pressure to its original level (100 cm of H2O) for a further 30 min.

A short description of data set [1]: Oral bioavailability and half-life in fasted adult beagles. The following applies: dog, in vivo, fasted adult beagles. How it is done: Heparinized blood and urine were collected at selected intervals over 24 hours. Each sample was chilled, centrifuged at 4°C and frozen prior to HPLC analysis.
Data set [2] has as its system longitudinal muscle from the guinea pig ileum. The data set is described as follows: Inhibition of stimulated contraction in isolated ileum.
Experimental: Parallel platinum electrodes were used to deliver electrical current at 1 minute intervals at a voltage adequate to induce contraction of 90% of maximal.
The test system of data set [3] is coronary endothelial cells. Briefly: Inhibition of adenosine utilization in cell culture. Particulars: for inhibition at 5 µM / inhibition at 50 µM: Endothelial cell, read-out: Inhibition of Adenosine Utilization (%); for Inhibition of Adenosine Utilization (%): 1 µM [3H] adenosine, 15 minutes. Type of data set: cell-based. How it is done:
Inhibition of adenosine utilization was determined by measuring the concentration of extracellular adenosine by scintillation counting following separation by thin layer chromatography (TLC).

Data set [4] has as its target T1, NBTI-specific adenosine transport site (Homo sapiens, UniProt Q99808).
T1 construct: incubated for 30 minutes with 0.5 mg neuronal membrane protein together with 0.5 nM [^3H]-NBTI; from tissue
T1 sequence (Q99808 1-456): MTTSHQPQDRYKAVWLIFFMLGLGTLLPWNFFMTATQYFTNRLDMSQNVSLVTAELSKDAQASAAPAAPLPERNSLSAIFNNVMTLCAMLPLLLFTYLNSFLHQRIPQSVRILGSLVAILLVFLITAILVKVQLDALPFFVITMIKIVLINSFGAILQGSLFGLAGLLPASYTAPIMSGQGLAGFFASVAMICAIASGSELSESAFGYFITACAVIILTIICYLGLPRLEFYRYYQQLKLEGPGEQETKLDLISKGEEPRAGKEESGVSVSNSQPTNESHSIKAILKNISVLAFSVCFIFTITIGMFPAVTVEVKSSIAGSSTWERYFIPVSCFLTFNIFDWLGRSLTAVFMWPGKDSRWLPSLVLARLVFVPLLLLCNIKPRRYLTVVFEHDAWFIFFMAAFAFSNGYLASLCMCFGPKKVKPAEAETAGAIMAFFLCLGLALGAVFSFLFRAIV
Briefly: [3H]-NBTI binding assay. Particulars: 50% displacement of bound [3H]-NBTI (0.5 nM); neuronal membrane protein, 30 minutes, pH 7.4, room temperature; read-out: ED50 (the source's name). How it is done:
Increasing concentrations of the test compounds were incubated for 30 minutes with 0.5 mg neuronal membrane protein together with 0.5 nM [^3H]-NBTI in a Tris buffer (pH 7.4) at room temperature. The assays were quenched and membranes collected by rapid filtration. Filters were then solubilized and radioactivity determined by scintillation counting.

Data set [5] has as its system platelet aggregation in human whole blood. Briefly: Inhibition of platelet aggregation in human whole blood. It counts as cell-based. Particulars: 10 minutes at 37°C, 10 µM adenosine added 5 minutes before, ADP (6-25 µM) induced, impedance technique. Here is the method:
Whole blood was drawn from healthy donors and collected in 0.1 vol. of sodium citrate to prevent coagulation. Platelet aggregation was measured by the impedance technique using a Whole Blood Aggregometer.

The mark [6] stands for this setting: Cavia porcellus, concentration which inhibited electrically stimulated contraction by 50%, read-out: IC50.

Usually bioavailability stands for dose-corrected exposure relative to a reference, in per cent. What is called half-life is the time needed for the level to fall by half in the phase considered. One may read the IC50 as the concentration at which inhibition is half-maximal. As for `NC[C@H]1O[C@@H](n2cnc(C(N)=O)c2N)[C@H](O)[C@@H]1O` [Compound No. 21, 5'-Amino-5'-deoxy-AICA-riboside], the “Function Recovery % Baseline LVDP (% of hearts)” value in the data set with Isolated rat hearts (1 µM in perfusion buffer) is on record as 77.0±4.4 (10) %; in the data set on Isolated rat hearts (5 µM in perfusion buffer) it was 81.0±3.2 (8) %. For the same compound, in data set [1] (po, 10 mg/kg IV bolus and 20 mg/kg solution via stomach tube, read-out: Absolute Oral Bioavailability %), the bioavailability is 71%. In data set [1], this compound showed a half-life of 1.3 h. Also, the IC50 in data set [2] (setting [6]) turned out to be 800 µM.
By inhibition is commonly meant the change of the read-out against control, counted positive when it falls. For the compound `C[C@H]1O[C@@H](n2cnc(C(=O)NCc3ccc(Cl)cc3)c2N)[C@H](O)[C@@H]1O` [Compound No. 61, 5-Amino-1-(5-deoxy-β-D-ribofuranosyl) imidazole-4N-[(4-chlorophenyl)methyl]carboxamide], in data set [3], the inhibition at 5 µM was 37 ± 28% and the inhibition at 50 µM was 72 ± 5%. The EC50 in data set [4] stood at 32 µM. Moreover, in data set [5] (Homo sapiens, Platelet), the IC50 came to 171 µM.
On to `Nc1c(C(=O)NCc2ccccc2Cl)ncn1[C@@H]1O[C@H](CO)[C@@H](O)[C@H]1O` [Compound No. 24, 5-Amino-1-β-D-ribofuranosylimidazole-4-N-[(2-chlorophenyl)methyl]carboxamide], for which the EC50 in data set [4] was 300 µM. The IC50 in data set [2] (Cavia porcellus) was determined as 400 µM.
With `[N-]=[N+]=NC[C@H]1O[C@@H](n2cnc(C(=O)NCc3ccc([N+](=O)[O-])cc3)c2N)[C@H](O)[C@@H]1O` [Compound No. 71, 5-Amino-1-(5-azido-5-deoxy-B-D-ribofuranosyl)imidazole-4-N-[(4-nitrophenyl)methyl]carboxamide], the “Inhibition of Adenosine Utilization (%)” value is 10 ± 3% in data set [3] (5 µM test compound) and 31 ± 11% in data set [3] (50 µM test compound). The compound further yielded a 50% inhibitory concentration (IC50) in data set [5] of 40 µM.
Regarding `CCCCO[C@@H]1[C@H](O)[C@@H](CO)O[C@H]1n1cnc(C(N)=O)c1N` [Compound No. 32, 5-amino-1-(2-O-n-butyl-β-D-ribofuranosyl) imidazole-4-carboxamide], the IC50 turned out to be 100 µM in data set [2] (setting [6]) and 350 µM in data set [5] (Homo sapiens, Platelet).
On to `Nc1c(C(=O)NC2CC3CCC2C3)ncn1[C@@H]1O[C@H](CO)[C@@H](O)[C@H]1O` (stereo partly drawn) [Compound No. 45, 5-Amino-1-β-D-ribofuranosylimidazole-4-N-(2-endo-norbornyl)carboxamide], for which the EC50 in data set [4] is 90 µM. In data set [2] (Cavia porcellus), this compound gave an IC50 of 100 µM.
The compound `NC[C@H]1O[C@@H](n2cnc(C(=O)NCc3ccc([N+](=O)[O-])cc3)c2N)[C@H](O)[C@@H]1O` [Compound No. 72] yielded an IC50 in data set [5] of 300 µM.
Turning to `Nc1c(C(=O)NCc2ccc([N+](=O)[O-])cc2)ncn1[C@@H]1O[C@H](CO)[C@@H](O)[C@H]1O` [Compound No. 23, 5-Amino-1-β-D-ribofuranosyl-imidazole-4-N-[(4-nitrophenyl)methyl]carboxamide], in data set [3], the inhibition at 5 µM was determined as 27 ± 4% and the inhibition at 50 µM came to 63 ± 2%. Also, in data set [4], the EC50 turned out to be 3 µM. The “Function Recovery % Baseline LVDP (% of hearts)” value in the data set with Isolated rat hearts (1 µM in perfusion buffer) is 79.0±2.3 (6) %. The same compound showed an IC50 in data set [2] (Cavia porcellus) of 3 µM. The compound also gave an IC50 in data set [5] (Homo sapiens, Platelet) of 38 µM.
Consider `COc1ccc(CNC(=O)c2ncn([C@@H]3O[C@H](CO)[C@@H](O)[C@H]3O)c2N)cc1` [Compound No. 39, 5-Amino-1-β-D-ribofuranosyl-imidazole-4-N-(p-methoxybenzyl)carboxamide], for which, in data set [3], the inhibition at 5 µM worked out at 7 ± 4% and the inhibition at 50 µM was 29 ± 1%. Besides, the EC50 in data set [4] stood at 600 µM. This compound yielded an IC50 in data set [2] (Cavia porcellus) of 500 µM.
For the compound `Nc1c(C(=O)NCc2cccc([N+](=O)[O-])c2)ncn1[C@@H]1O[C@H](CO)[C@@H](O)[C@H]1O` [Compound No. 28, 5-amino-1-β-D-ribofuranosylimidazole-4-N-[(3-nitrophenyl)methyl]carboxamide], in data set [3], the inhibition at 5 µM turned out to be 17 ± 3% and the inhibition at 50 µM is 47 ± 2%. Further, the EC50 in data set [4] amounted to 15 µM. The IC50 in data set [5] (Homo sapiens, Platelet) was found to be 180 µM.
Consider `Nc1c(C(=O)NCCc2ccc([N+](=O)[O-])cc2)ncn1[C@@H]1O[C@H](CO)[C@@H](O)[C@H]1O` [Compound No. 59], for which, in data set [4], the EC50 stood at 2 µM. The “Function Recovery % Baseline LVDP (% of hearts)” value in the data set with Isolated rat hearts (1 µM in perfusion buffer) is reported as 75.8±2.2 (7) %. The compound further had an IC50 in data set [5] (Homo sapiens, Platelet) of 70 µM.
`NC(=O)c1ncn([C@@H]2O[C@H](CCl)[C@@H](O)[C@H]2O)c1N` [Compound No. 26, 5-amino-1-(5-chloro-5-deoxy-β-D-ribofuranosyl) imidazole-4-carboxamide]: the “Function Recovery % Baseline LVDP (% of hearts)” value in the data set with Isolated rat hearts (5 µM in perfusion buffer) is 70.7±4.1 (8) %. The IC50 in data set [2] (concentration which inhibited electrically stimulated contraction by 50%, read-out: IC50) turned out to be 200 µM.
As to `Nc1c(C(=O)NCc2ccc(Br)cc2)ncn1[C@@H]1O[C@H](CO)[C@@H](O)[C@H]1O` [Compound No. 56, 5-Amino-1-β-D-ribofuranosyl-imidazole-4-N-[(4-bromophenyl)methyl]carboxamide], in data set [3], the inhibition at 5 µM amounted to 55 ± 7% and the inhibition at 50 µM amounted to 65 ± 9%. Also, the EC50 in data set [4] is 32 µM. Further, the IC50 in data set [5] (Homo sapiens, Platelet) is 75 µM.
With `Nc1c(C(=O)NCc2ccc(Cl)cc2)ncn1[C@@H]1O[C@H](CO)[C@@H](O)[C@H]1O` [Compound No. 29, 5-amino-1-β-D-ribofuranosylimidazole-4-N-[(4-Chlorophenyl)methyl]carboxamide], the inhibition at 5 µM in data set [3] turned out to be 41 ± 11%. For the same compound, the inhibition at 50 µM in data set [3] is 67 ± 8%. In addition, in data set [4], the EC50 is 100 µM. Besides, the “Function Recovery % Baseline LVDP (% of hearts)” value in the data set on Isolated rat hearts (1 µM in perfusion buffer) is recorded as 76.7±2.9 (7) %. For the same compound, the IC50 in data set [2] (Cavia porcellus) is 60 µM; in data set [5] (Homo sapiens, Platelet), 90 µM.
With `Cc1ccc(CNC(=O)c2ncn([C@@H]3O[C@H](CO)[C@@H](O)[C@H]3O)c2N)cc1` [Compound No. 30, 5-amino-1-β-D-ribofuranosylimidazole-4-N-[(4-methylphenyl)methyl]carboxamide], in data set [3], the inhibition at 5 µM is 21 ± 1% and the inhibition at 50 µM is 49 ± 4%. In data set [4], the EC50 came out at 225 µM. This compound also came in with an IC50 in data set [2] (Cavia porcellus) of 20 µM.
Regarding `Nc1c(C(=O)NCc2ccc(Cl)cc2Cl)ncn1[C@@H]1O[C@H](CO)[C@@H](O)[C@H]1O` [Compound No. 25, 5-amino-1-β-D-ribofuranosylimidazole-4-N-[(2,4-dichlorophenyl)methyl]carboxamide], in data set [3], the inhibition at 5 µM amounted to 21 ± 1% and the inhibition at 50 µM amounted to 56 ± 2%. In addition, the EC50 in data set [4] amounted to 72 µM. Also, the “Function Recovery % Baseline LVDP (% of hearts)” value with Isolated rat hearts (5 µM in perfusion buffer, listed as 25 (1-360)) was 86.8±2.3 (6) % and 72.4±1.6 (6) %. Moreover, the midpoint of inhibition in data set [2] (Cavia porcellus), the IC50, lay at 20 µM.
Turning to `Nc1c(C(=O)SCc2ccc([N+](=O)[O-])cc2)ncn1[C@@H]1O[C@H](CO)[C@@H](O)[C@H]1O`, in data set [3], the inhibition at 5 µM is 17 ± 3% and the inhibition at 50 µM turned out to be 19 ± 2%. Further, in data set [4], the EC50 is 0.5 µM. For the same compound, the “Function Recovery % Baseline LVDP (% of hearts)” value with Isolated rat hearts (1 µM in perfusion buffer) was 74.0±2.8 (6) %. This compound also displayed an IC50 in data set [2] (Cavia porcellus) of 10 µM.
For the compound `NC(=O)c1nc(Sc2ccccc2)n([C@@H]2O[C@H](CO)[C@@H](O)[C@H]2O)c1N` [Compound No. 43, 5-Amino-2-thiophenyl-1-β-D-ribofuranosylmidazole-4-carboxamide], the EC50 in data set [4] turned out to be 71 µM. Besides, the IC50 worked out at 200 µM in data set [2] (Cavia porcellus) and 620 µM in data set [5] (Homo sapiens, Platelet).
On to `NC(=O)c1nc(S)n([C@@H]2O[C@H](CO)[C@@H](O)[C@H]2O)c1N` [Compound No. 27, 5-amino-2-thio-1-β-D-ribofuranosyl imidazole-4-carboxamide], for which the EC50 in data set [4] came to 344 µM. Also, the “Function Recovery % Baseline LVDP (% of hearts)” value in the data set on Isolated rat hearts (5 µM in perfusion buffer) was 74.6±3.7 (7) %. Moreover, the IC50 in data set [2] (Cavia porcellus) came out at 500 µM; in data set [5] (Homo sapiens, Platelet), 950 µM.
